Patent US20070248955A1, “Use Of Genetic Polymorphisms To Predict Drug-Induced Hepatotoxicity” (NOVARTIS AG, priority 2003, published 2007)

Experiment: Hepatotoxicity (fold increases of AST or ALT over the upper limit of normal) in the phase II clinical trial
Format: in vivo, human
Procedure: Relevant genetic polymorphisms were identified in a multicenter, randomized, double-masked placebo-controlled dose finding phase II trial of N-benzoyl-staurosporine, which was conducted in subjects with diabetic macular edema. The safety of N-benzoyl-staurosporine was evaluated in the subjects and additional pharmacokinetic information on was collected. […] Subjects were flagged as having experienced hepatotoxicity if either aspartate aminotransferase (AST) or alanine aminotransferase (ALT) had fold elevations over the upper limit of normal on visit 3, 4 or 5.
The diagnosis of hepatotoxicity can be accomplished using assays of serum enzyme levels. Serum enzyme assays indicative of liver dysfunction are well-known to those of skill in the medical arts and routine in hospital laboratories. For a definition of hepatotoxicity based upon serum levels of aspartate transaminase (AST) and used in the EXAMPLE: The definition of hepatotoxicity used in this analysis was based on fold increases in serum aspartate transaminase or alanine aminotransferase over the upper limit of normal (ULN) on visits 3, 4 or 5. The upper limit of normal for serum aspartate transaminase is 42 U/L for ages 3-64 and 55 U/L for ages 65 and up; for serum alanine aminotransferase the upper limit of normal is 48 U/L (Smithkline Beecham Clinical Laboratories Reference Alert Ranges). While an elevation of either enzyme at visit 3, 4 or 5 constituted hepatotoxicity, transaminase elevations were disregarded during subsequent visits when the drug was not being administered. Furthermore, subjects who had elevated liver function tests at baseline (visit 2) were not flagged as having experienced hepatotoxicity, regardless of the elevation in their enzyme levels following administration of the drug. Nine subjects were flagged as having experienced hepatotoxicity. Of these, six consented to clinical pharmacogenetic analysis.
Hepatotoxicity and N-benzoyl-staurosporine metabolism. The relationship between the occurrence of hepatotoxicity in the clinical trial and the dose of N-benzoyl-staurosporine administered was examined. The percentage of subjects per dose group that experienced hepatotoxicity are as follows: 3% for 50 mg/day, 8% for 100 mg/day and 14% of those that took 150 mg/day. While most of the subjects that experienced liver toxicity took the highest dose of N-benzoyl-staurosporine, the association between of N-benzoyl-staurosporine dose and hepatotoxicity is not significant (p=0.09; Fisher's Exact).

Question: Which “percentage of subjects per dose group that experienced hepatotoxicity” value (50 mg/day, subjects with diabetic macular edema) does the source give for `CO[C@@H]1[C@H](N(C)C(=O)c2ccccc2)C[C@H]2O[C@]1(C)n1c3ccccc3c3c4c(c5c6ccccc6n2c5c31)C(=O)NC4` [N-benzoyl-staurosporine] here?
Answer: Its value is 3%.

Question: And the “percentage of subjects per dose group that experienced hepatotoxicity” value (100 mg/day, subjects with diabetic macular edema)?
Answer: Its value is 8%.

Question: What about the “percentage of subjects per dose group that experienced hepatotoxicity” value (150 mg/day, subjects with diabetic macular edema) of the same compound?
Answer: The value was 14%.

Question: And the “Hepatotoxicity Yes” value (CPG samples (83 subjects, all arms incl. 0 mg/day))?
Answer: The value was 7%.

Question: And the “Hepatotoxicity Yes” value (Trial samples (139 subjects, all arms incl. 0 mg/day))?
Answer: The value was 6%.

Question: What about the “subjects that experienced hepatotoxicity” value (of the 140 subjects enrolled in the clinical trial (all arms)) of the same compound?
Answer: The value was “nine”.

Question: And the safety profile (phase II trial, subjects with diabetic macular edema)?
Answer: Its safety profile is “good safety profile”.
